This is an account of results in paper PMC8536679, “A small molecule produced by Lactobacillus species blocks Candida albicans filamentation by inhibiting a DYRK1-family kinase” (Nature Communications, 2021).

This test addresses T1, Yak1 (Candida albicans, UniProt A0A1D8PH81).
T1 construct: full-length, C-terminal 6xHis-3xFlag tag kept; both YAK1 alleles tagged and overexpressed in C. albicans; native purification on anti-Flag gel, eluted with 3xFlag peptide
Put plainly: ADP-Glo kinase assay with DYRKtide. In kind it is biochemical. To be noted: 10 µM ATP, 0.2 mg/mL DYRKtide, 2.5 mM MgCl2, HEPES-NaOH pH 7.2, 40 min; ATP site proposed by docking only.

T1 sequence (A0A1D8PH81 entry or part of it): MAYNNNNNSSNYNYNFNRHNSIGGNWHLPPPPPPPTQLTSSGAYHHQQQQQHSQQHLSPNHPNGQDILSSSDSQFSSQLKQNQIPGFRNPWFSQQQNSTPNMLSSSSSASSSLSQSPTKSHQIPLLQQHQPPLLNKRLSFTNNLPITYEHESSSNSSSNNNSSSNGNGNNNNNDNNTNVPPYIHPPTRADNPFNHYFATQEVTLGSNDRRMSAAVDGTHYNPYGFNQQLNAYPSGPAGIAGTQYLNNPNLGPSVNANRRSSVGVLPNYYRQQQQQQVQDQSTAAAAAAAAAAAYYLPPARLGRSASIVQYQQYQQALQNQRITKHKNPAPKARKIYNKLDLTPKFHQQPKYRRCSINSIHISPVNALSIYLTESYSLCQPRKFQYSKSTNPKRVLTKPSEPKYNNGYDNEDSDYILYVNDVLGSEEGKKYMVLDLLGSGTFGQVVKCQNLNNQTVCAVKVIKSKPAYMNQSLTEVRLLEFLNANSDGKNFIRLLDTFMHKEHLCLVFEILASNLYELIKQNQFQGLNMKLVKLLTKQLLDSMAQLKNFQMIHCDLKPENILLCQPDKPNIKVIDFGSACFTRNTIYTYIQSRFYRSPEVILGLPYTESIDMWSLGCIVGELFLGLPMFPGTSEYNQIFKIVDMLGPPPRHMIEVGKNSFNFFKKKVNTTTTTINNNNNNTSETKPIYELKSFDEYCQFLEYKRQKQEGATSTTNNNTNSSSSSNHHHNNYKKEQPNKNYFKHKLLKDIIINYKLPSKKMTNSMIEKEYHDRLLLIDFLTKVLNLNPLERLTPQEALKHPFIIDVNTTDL

On to `COc1ccc2c(c1)[nH]c1c(C)nccc12` [harmine], for which the concentration-dependent inhibition is 1-ECBC and harmine inhibit Yak1 activity in a concentration-dependent manner.

For the compound `CCOC(=O)c1nccc2c1[nH]c1ccccc12` [1-ECBC, 1-ethoxycarbonyl-β-carboline], the concentration-dependent inhibition was 1-ECBC and harmine, a known β-carboline scaffold DYRK inhibitor, exhibited concentration-dependent inhibition of Yak1 activity.
